# Reference: US5066676A, “Sulfonamido derivative inhibiting the aldose reductase enzyme system and pharmaceutical compositions containing them” (Laboratori Baldacci SpA, priority 1987, dated 1991)
# Assays:
# Acute toxicity: rat = conditions: in vivo, rat (Wistar), 20 ml/kg, read-out: % Death
# Source text: (§1) The toxicity tests after only one administration have been carried out on two animal species (mice and rats), using two administration routes (os, iv).
# (§2) The compounds have been administered by gastric probe, suspended in Methocell or by injection (iv) dissolved in physiological solution with the addition of sodium bicarbonate.
# (§3) The animals have been kept under observation for 15 days. The controls have been carried out several times in the first days and twice a day in the next days. In the table 1 the conditions used and the results obtained are reported.
# Wistar rats, of both sexes have been used of average weight of 120 g, fasted after 18 hours and with water at libitum. The conditions of stalling and the administration ways were the same as those reported in the preceeding paragraph (acute toxicity: mouse).
# Acute toxicity: mice = conditions: in vivo, mouse (Swiss), read-out: % Death
# Protocol: as §1
# For these tests Swiss mice have been used, of both sexes, having average weight 20 g, fasted after 18 hours and administered with water ad libitum. The animals were maintained under standard environment conditions (temperature: 20°-22° C. and moisture 50%).
# as §2, §3
# aldose reductase = target: T1, aldose reductase (Bos taurus, UniProt P16116); test: In vitro inhibition of aldose reductase activity of raw extracts from bovine crystalline lens; format: biochemical; conditions: for inhibiting action of the aldose reductase activity (in words): bovine lens extract; for IC50: glyceraldehyde substrate, NADPH, pH 6.8, 37° C., read-out: IC50 on the aldose reductase activity of raw extracts originating from bovine crystalline lens
# T1 construct: 4 bovine crystalline lenses (8 g) are homogenized by means of Potter in ice bath; from tissue; host or cells: bovine crystalline lens
# Protocol: "In vitro" tests have been carried out to evalute the inhibition of the aldose reductase activity, prepared from the extract of bovine crystalline lenses.
# PREPARATION OF THE RAW EXTRACTS
# 4 bovine crystalline lenses (8 g) are homogenized by means of Potter in ice bath with 40 ml of 50 mM phosphate buffer, pH 6.8, containing 2-mercaptoethanol pH ([…]). After centrifugation (12.000×g -20 min-4° C.) the supernatant is brought to 40% saturation with an ammonium sulphate and centrifugated again (14.000×g). The supernatant is then brought to the 80% saturation ((NH4)2 SO4) and, after centrifugation for 20 minutes and at 14.000×g, the sedimented matter is recovered and suspended in 7 ml of phosphate buffer. The enzymatic preparation is dialyzed by ultrafiltration with AMICON ultrafiltration cell.
# DOSAGE OF THE ENZYMATIC ACTIVITY
# The reference cuvette contains all the several substances apart from the substrate.
Structure (SMILES),"mortality at 360 h (Acute toxicity: rat; po, 5000 mg/kg/os)",mortality at 360 h (Acute toxicity: rat; 500 mg/kg/iv),mortality at 360 h (Acute toxicity: rat; 400 (unit and route not given)),"mortality at 360 h (Acute toxicity: mice; po, 5000 mg/kg/os)",mortality at 360 h (Acute toxicity: mice; 400 mg/kg/iv),inhibiting action of the aldose reductase activity (in words) (aldose reductase),IC50 (aldose reductase)
"CN(CC(=O)O)S(=O)(=O)c1ccc2oc3ccc(F)cc3c(=O)c2c1 [ARI 8, 7-fluoro-2-(N-methyl-N-carboxymethyl)sulfamoylxanthone]",30%,40%,0%,10%,0%,"higher activity, with respect to the of sorbinil and of ARI 1",1000 nM
"CN(CC(=O)O)S(=O)(=O)c1ccc2oc3ccc(S(=O)(=O)N(C)CC(=O)O)cc3c(=O)c2c1 [ARI 9, 2,7-bis (N-methyl-N-carboxymethyl) sulfamoylxanthone]",,,,,,"higher activity, with respect to the of sorbinil and of ARI 1",1000 nM
